Patent publication US8318812B2, “Therapeutic agents for the treatment of lymphoid malignancies” (The Ohio State University Research Foundation, priority 2006, dated 2012)
pIC50: −log10 of the molar value.

Key:
Type in all cases: cell-based, Human
[1] = test system: 697-neo and 697-Bcl-2 cell lines; assay: Annexin V/PI viability in 697-neo and 697-Bcl-2 cells; conditions: 24 hours
Experimental: Cells: Blood was obtained from patients with B-cell CLL with informed consent under a protocol approved by the hospital internal review board. All patients examined in this series had immunophenotypically defined CLL as outlined by the modified 96 National Cancer Institute criteria. B-CLL cells were isolated from freshly donated blood using ficoll density gradient centrifugation (Ficoll-Paque Plus, Amershan Biosciences, Piscataway, N.J.). Isolated mononuclear cells were incubated in RPMI 1640 media (Gibco/Invitrogen, Carlsbad, Calif.) supplemented with 10% heat-inactivated fetal bovine serum (FBS, Hyclone Laboratories, Logan, Utah), 2 mM L-glutamine (Invitrogen, Carlsbad, Calif.), and penicillin (100 U/mL)/streptomycin (100 μg/ml) [Sigma-Aldrich, St. Louis] at 37° C. in an atmosphere of 5% CO2. Freshly isolated B-CLL cells were used in all experiments described herein. […]
Analysis of cell viability and apoptosis: The cell viability was carried out by dual staining with Annexin V conjugated to flourescein-isothyocyanate (FITC) and Propidium iodide (PI) as described previously. Briefly, 1×10^6 cells were stained with Annexin V-FITC (BD Pharmingen) and Propidium iodide (BD Pharmingen) for 15 minutes in dark and analyzed by flow cytometry using a Beckman-Coulter EPICS XL cytometer (Beckman-Coulter, Miami, Fla.). […]

[2] = test system: Mino cells; assay: Annexin V/PI toxicity in Mino cells; conditions: Homo sapiens, WinNolin sigmoid inhibitory model
Experimental: Primary MCL cells were isolated from PBMC (with informed patient consent under a protocol approved by IRB) as described before. All the MCL patients were identified as outlined by the World Health Organization (WHO) classification. Human mantle cell lymphoma patient cell lines (Mino and Jeko) were obtained from Dr. Raymond Lai. Primary cells or MCL cell lines were incubated in RPMI 1640 media, supplemented with 10%-20% heat-inactivated fetal bovine serum, 2 mM L-glutamine and penicillin (100 U/mL)/streptomycin ([…]) at 37° C. in an atmosphere of 5% CO2. FTY720 was synthesized as previously described. Toxicity was determined by flow cytometry using Annexin-V-FITC and Propidium Iodide (PI) staining. Apoptotic cells were identified as Annexin-V+ and/or PI+ cells. Cells excluding both FITC and PI were considered viable. Western Blotting was performed as described previously using indicated antibodies. The PARP (Ab-2) and Caspase 9 antibodies were purchased from Oncogene/Calbiochem/EMD Biosciences (San Diego, Calif.). Cyclin D1, Akt, Actin, Mcl-1, p-ERK, ERK and Bcl-2 were obtained from Santa Cruz biotech (Santa Cruz, Calif.).
Several therapeutic agents, including fludarabine, chlorambucil, 2-chloro-2-deoxyadenosine and glucocorticoids, induce toxicity in B cell malignancies through activating caspases, the cysteine proteases of CED3/ICE family. Inhibition of these caspases results in abrogation of apoptosis mediated by the toxic stimuli. To determine if caspase activation is involved in FTY720-induced cytotoxicity in MCL, we pretreated Mino cells with 150 μM broad spectrum caspase inhibitor z-VAD-fmk. […] Activation of caspases results in cleavage of key cellular proteins including poly-ADP-ribose polymerase (PARP).

[3] = test system: PARP, Caspase 3, caspase 8 and caspase 9; assay: Western blot of PARP and caspases 3, 8, 9 in CLL cells
Experimental: Western blotting. Immunoblot assays were performed as described previously.(34) Cell lysates were prepared and quantified by the bicin choninic acid (BCA) method (Pierce, Rockford, Ill.). Lysates with 50 μg of total protein were separated using 10% sodium dodecyl sulfate-polyacrylamide-gel electrophoresis, and transferred to 0.2 μm nitrocellulose membranes (Schleicher & Schuell, Keene, N.H.). The blots were probed with indicated primary antibodies followed by Horseradish peroxidase (HRP)-conjugated goat anti-rabbit IgG or goat anti-mouse IgG (Bio-Rad Laboratories, Richmond, Calif.). Detection was made with chemiluminescent substrate (SuperSignal, Pierce Inc. Rockford, Ill.). The PARP (Ab-2) and Caspase 9 antibodies were purchased from Oncogene/Calbiochem/EMD Biosciences (San Diego, Calif.). The Caspase 3 (AR-14 caspase 3/cpp32 and caspase 8 (AR-18) antibodies were kind gift from Dr. John Reed (Burnham Institute, La Jolla, Calif.).
FTY720 induced apoptosis in CLL cells is not dependent on activation of caspases, the cysteine proteases of CED3/ICE family Several therapeutic agents such as glucocorticoids and chemotherapeutic agents such as fludarabine, chlorambucil and 2-chloro-2-deoxyadenosine induce cellular cytotoxicity in CLL cells through activation of caspases, the cysteine proteases of CED3/ICE family. […]

## CCCCCCCCc1ccc(CCC(N)(CO)CO)cc1.Cl [FTY720, 2-Amino-2-[2-(4-octylphenyl)ethyl]propane 1,3-diol hydrochloride]
[1]
  cellular cytotoxicity in 697-neo versus 697-Bcl-2 over expressing cell line: comparable levels of cellular cytotoxicity
[2]
  pIC50: 4.93
[3]; 24 and 48 hours post treatment, CLL cells
  PARP cleavage: failed to reveal PARP cleavage
[3]; FTY720 treated CLL cells
  caspases 3, 8 and 9 activation: remained in precursor forms
